This passage reports IC50 and inhibition results from patent US6458781B1, “Substituted diarylalkyl amides as calcium channel antagonists” (priority 1998, dated 2002).

The target in assay [1] is T1, N-type calcium channels in IMR-32 cells (Homo sapiens, UniProt Q00975).
T1 construct: host or cells: IMR-32 cells differentiated with dibutyryl cAMP and bromodeoxyuridine
Kind of assay: N-type Ca2+ channel blocking potency in IMR-32 cells using Indo-1. It counts as cell-based. The note with it: for IC50: IMR-32 cells. The gist of the method: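 Differentiated IMR-32 cells loaded with Indo-1 AM were preincubated with compound and 5 μM nitrendipine (L-type block) for 10 min at 30° C in HEPES/Tris pH 7.4 HBSS with 0.5% BSA. Cells were depolarized with KCl/CaCl2, and the 400/490 nm emission ratio rise over basal was measured. IC50 came from a four-parameter logistic fit.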

Assay [2] addresses T2, N-type Ca2+ channels in cultured superior cervical ganglion (SCG) neurons (Rattus norvegicus, UniProt Q02294).
T2 construct: from tissue
The assay is described as follows: Calcium current in superior cervical ganglion neurons (whole-cell voltage clamp). It is filed as cell-based. Conditions: for inhibition at 1 µM: read-out: SCG Ca, % blockage at 1 μM; for inhibition at 10 µM: read-out: SCG Ca, % blockage at 10 μM; for IC50: read-out: SCG Ca, IC50. The procedure: Electrophysiological techniques were used to measure the effects of experimental compounds on voltage-gated Ca^2+, […] , and K^+ channels. […] Sodium and potassium channel currents were measured from acutely dissociated SCG neurons.
Dissociation of the neurons from the ganglia was accomplished using a 30 to 45 minute treatment in 0.25% trypsin, similar to methods outlined in Higgins, et al. (see Higgins D. et al. “Tissue culture of mammalian autonomic neurons.” In Banker G. and Goslin K. (Eds), Culturing Nerve Cells, Cambridge, Mass., MIT Press [1991]).
Ca^2+, Na^+, and K^+ channel currents in SCG neurons were measured using conventional single electrode whole-cell voltage-clamp techniques, outlined in Hamill et al., (see Hamill O. P. et al. “Improved patch-clamp techniques for high resolution current recordings from cells and cell-free membrane patches.”Pflugers Arch., 1981;391:85-100). For Ca^2+ channel experiments, the external bathing solution contained tetraethylammonium chloride (100 mM), choline chloride (52 mM), NaCl (15 mM), HEPES (10 mM), glucose (5.6 mM), CaCl2 (2 mM), and MgCl2 (0.8 mM), pH 7.35 with KOH; with the internal pipette solution containing cesium methane sulfonate (140 mM), EGTA (10 mM), and HEPES (10 mM), supplemented with 5 mM Mg^2+-ATP on the day of the experiment, pH 7.4 with CsOH. For Na^+ and K^+ channel experiments, the external bathing solution contained NaCl (150 mM), KCl (5 mM), MgCl2 (1.1 mM), CaCl2 (2.6 mM), Na-HEPES (10 mM), and glucose (10 mM), pH 7.4; with the internal pipette solution containing KCl (80 mM), K-gluconate (50 mM), HEPES (10 mM), and EGTA (10 mM), pH 7.4 with KOH. Experimental compounds were diluted into the external solution and applied to the soma of cells by local perfusion from large diameter (20-50 μm) glass micropipettes or from a U-tube applicator.
After obtaining a whole-cell recording, Ca^2+ channels were elicited by stepping to test potentials between −40 and +20 mV for 120 msec from the holding potential of −90 mV to determine if the amplitude of the current and clamp control were adequate for evaluation of drug effects. Ca^2+ channel currents were evoked by stepping from a holding potentials between −65 mV and −55 mV to a test potential of +20 mV for 150 msec every 40 seconds. The amplitude of the Ca^2+ channel currents were compared before and during drug application and drug effects expressed as percent inhibition of the amplitude of control currents.

Where [3] appears, read: 5 μM nitrendipine present, read-out: IMR32 IC50.
Setting [4] is: estimated from two data points, read-out: IMR32 IC50 (estimated IC50 values based on two data points).

Structures can show the parent of a compound that is named as a salt. Where two headings read alike, the source gives them in different places.

T2 sequence (Q02294 whole entry): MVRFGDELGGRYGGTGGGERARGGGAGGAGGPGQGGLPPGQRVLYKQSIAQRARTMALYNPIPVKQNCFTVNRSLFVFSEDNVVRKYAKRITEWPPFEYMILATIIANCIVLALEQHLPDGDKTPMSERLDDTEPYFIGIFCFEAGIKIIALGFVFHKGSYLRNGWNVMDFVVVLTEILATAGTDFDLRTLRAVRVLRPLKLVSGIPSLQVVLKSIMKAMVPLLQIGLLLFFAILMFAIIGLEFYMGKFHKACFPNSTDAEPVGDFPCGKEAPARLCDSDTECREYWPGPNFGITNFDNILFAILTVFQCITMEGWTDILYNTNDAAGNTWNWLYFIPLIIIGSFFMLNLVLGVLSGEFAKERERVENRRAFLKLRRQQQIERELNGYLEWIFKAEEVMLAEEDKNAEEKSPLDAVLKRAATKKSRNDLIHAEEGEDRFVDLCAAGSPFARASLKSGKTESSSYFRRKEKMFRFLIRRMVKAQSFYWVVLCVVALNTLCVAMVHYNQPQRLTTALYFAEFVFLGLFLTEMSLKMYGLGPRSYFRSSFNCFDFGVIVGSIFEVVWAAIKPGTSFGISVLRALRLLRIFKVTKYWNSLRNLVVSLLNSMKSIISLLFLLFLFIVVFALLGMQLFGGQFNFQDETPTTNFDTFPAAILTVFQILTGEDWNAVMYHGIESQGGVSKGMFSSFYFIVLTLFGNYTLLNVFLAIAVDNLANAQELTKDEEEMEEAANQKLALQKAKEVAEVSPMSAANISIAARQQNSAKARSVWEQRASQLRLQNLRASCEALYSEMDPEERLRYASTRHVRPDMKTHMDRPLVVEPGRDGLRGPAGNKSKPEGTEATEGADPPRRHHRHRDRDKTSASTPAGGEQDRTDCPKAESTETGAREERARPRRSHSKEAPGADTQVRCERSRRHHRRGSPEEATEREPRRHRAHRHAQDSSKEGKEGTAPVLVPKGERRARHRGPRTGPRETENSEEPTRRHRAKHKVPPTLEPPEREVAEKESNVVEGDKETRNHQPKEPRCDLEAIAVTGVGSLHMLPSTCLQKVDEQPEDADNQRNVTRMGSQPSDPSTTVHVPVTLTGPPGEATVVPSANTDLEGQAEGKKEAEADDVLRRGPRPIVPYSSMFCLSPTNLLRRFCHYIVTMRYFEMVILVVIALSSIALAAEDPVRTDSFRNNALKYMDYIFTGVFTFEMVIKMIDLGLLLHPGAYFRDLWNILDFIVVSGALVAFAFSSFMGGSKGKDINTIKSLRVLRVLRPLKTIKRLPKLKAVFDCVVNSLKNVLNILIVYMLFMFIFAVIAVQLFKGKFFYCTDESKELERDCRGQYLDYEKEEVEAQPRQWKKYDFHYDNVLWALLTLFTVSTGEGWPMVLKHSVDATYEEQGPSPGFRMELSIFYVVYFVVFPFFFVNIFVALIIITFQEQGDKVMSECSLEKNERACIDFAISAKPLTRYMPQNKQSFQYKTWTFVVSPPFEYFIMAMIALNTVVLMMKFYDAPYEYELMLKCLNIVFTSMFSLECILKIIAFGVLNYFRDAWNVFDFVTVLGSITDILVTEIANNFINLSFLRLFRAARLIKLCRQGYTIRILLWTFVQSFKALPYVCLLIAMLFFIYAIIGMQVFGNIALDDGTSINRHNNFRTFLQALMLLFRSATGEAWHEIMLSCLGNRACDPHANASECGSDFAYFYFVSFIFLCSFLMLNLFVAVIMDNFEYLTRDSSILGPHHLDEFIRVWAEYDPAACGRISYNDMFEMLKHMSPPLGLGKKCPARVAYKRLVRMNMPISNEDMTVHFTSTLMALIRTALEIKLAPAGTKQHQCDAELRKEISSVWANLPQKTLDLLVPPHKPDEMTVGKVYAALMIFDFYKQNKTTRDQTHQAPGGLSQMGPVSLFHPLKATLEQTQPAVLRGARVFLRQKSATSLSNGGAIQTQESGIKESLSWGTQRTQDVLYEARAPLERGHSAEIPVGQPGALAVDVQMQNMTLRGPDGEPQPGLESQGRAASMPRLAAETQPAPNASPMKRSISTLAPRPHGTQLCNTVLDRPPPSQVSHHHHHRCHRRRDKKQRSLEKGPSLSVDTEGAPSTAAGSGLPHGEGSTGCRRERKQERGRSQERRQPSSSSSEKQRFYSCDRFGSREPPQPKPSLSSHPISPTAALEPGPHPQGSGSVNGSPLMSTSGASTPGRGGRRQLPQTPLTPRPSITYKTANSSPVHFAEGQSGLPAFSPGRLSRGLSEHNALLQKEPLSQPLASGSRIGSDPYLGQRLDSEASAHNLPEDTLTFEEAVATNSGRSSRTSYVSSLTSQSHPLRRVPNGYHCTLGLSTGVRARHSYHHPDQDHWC
T2 sequence (P54290 25-944 partner limits assumed): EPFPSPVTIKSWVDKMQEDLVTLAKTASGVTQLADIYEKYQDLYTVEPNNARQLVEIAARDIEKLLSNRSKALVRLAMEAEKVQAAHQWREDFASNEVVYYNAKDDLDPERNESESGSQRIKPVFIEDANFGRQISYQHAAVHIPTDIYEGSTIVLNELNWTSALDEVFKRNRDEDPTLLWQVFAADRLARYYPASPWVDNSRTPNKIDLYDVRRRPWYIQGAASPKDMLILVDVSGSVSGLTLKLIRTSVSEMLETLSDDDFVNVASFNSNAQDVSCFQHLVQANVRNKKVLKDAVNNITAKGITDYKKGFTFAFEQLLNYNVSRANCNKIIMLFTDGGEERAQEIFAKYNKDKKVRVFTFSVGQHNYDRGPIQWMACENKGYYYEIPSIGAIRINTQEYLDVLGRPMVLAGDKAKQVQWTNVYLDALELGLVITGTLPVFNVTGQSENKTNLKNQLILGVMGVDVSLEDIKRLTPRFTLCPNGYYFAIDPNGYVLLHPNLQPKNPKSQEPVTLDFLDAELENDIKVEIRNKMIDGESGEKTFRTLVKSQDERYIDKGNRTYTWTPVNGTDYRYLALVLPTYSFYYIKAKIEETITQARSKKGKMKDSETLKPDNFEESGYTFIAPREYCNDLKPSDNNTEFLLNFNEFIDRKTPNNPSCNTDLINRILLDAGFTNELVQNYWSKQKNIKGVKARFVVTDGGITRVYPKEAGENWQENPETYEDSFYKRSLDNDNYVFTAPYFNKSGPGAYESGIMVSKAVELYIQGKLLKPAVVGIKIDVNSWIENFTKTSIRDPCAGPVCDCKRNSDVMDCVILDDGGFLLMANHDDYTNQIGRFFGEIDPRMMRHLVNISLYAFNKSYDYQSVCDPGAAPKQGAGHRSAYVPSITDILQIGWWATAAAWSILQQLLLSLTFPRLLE
T2 sequence (P54290 945-1091 partner limits assumed): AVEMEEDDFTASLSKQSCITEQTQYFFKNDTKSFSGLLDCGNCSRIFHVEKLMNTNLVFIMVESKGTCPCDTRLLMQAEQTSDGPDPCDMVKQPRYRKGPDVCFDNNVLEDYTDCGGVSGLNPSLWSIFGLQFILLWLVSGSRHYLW
T2 sequence (P54287 whole entry partner): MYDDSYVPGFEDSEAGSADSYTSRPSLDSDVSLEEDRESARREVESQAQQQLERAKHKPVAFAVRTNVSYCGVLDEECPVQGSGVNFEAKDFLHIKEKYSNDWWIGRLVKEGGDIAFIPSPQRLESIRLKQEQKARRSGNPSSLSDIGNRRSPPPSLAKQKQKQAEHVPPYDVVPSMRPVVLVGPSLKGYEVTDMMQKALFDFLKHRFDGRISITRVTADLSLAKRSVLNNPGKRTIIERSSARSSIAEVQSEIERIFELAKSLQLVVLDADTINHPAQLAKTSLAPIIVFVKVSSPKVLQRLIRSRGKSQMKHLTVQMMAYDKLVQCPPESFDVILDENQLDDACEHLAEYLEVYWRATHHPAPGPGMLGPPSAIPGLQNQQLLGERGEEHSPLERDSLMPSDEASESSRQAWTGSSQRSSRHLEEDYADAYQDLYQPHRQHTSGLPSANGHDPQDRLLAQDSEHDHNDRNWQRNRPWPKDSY

For orientation: IC50 means the concentration at which inhibition is half-maximal. Turning to `CC(C)C[C@H](N)C(=O)NCCCC(c1ccc(F)cc1)c1ccc(F)cc1` [Example 7, (S)-2-Amino-4-methyl-pentanoic acid [4,4-bis-(4-fluoro-phenyl)-butyl]-amide monohydrochloride], the IC50 in assay [1] (setting [3]) stood at 2400 nM. In assay [2], the inhibition at 1 µM turned out to be 45% and the inhibition at 10 µM is 98%.

Regarding `CC(C)C[C@H](NCC1CCCCC1)C(=O)NCCCC(c1ccc(F)cc1)c1ccc(F)cc1` [Example 8, (S)-2-(Cyclohexylmethyl-amino)-4-methyl-pentanoic acid [4,4-bis-(4-fluoro-phenyl)-butyl]-amide monohydrochloride], the values for the IC50 in assay [1] (setting [3]) and in assay [2] were 460 nM and 2400 nM, respectively.

For `CC(C)=CCN[C@@H](CC(C)C)C(=O)NCCCC(c1ccc(F)cc1)c1ccc(F)cc1` [Example 9, (S)-4-Methyl-2-(3-methyl-but-2-enylamino)-pentanoic acid [4,4-bis-(4-fluoro-phenyl)-butyl]-amide monohydrochloride], the IC50 in assay [1] (setting [3]) amounted to 280 nM; in assay [2], 53000 nM.

In the case of `CN[C@@H](CC(C)C)C(=O)NCCCC(c1ccc(F)cc1)c1ccc(F)cc1` [Example 12, (S)-4-Methyl-2-methylamino-pentanoic acid [4,4-bis-(4-fluoro-phenyl)-butyl]-amide monohydrochloride], the IC50 in assay [1] (setting [3]) was determined as 1430 nM. In addition, in assay [2], the inhibition at 1 µM is 3% and the inhibition at 10 µM is 94%.

As for `CC(C)C[C@@H](C(=O)NCCCC(c1ccc(F)cc1)c1ccc(F)cc1)N(C)Cc1ccc(C(C)(C)C)cc1.Cl` [Example 14, (S)-2-[(4-tert-Butyl-benzyl)-methyl-amino]-4-methyl-pentanoic acid [4,4-bis-(4-fluoro-phenyl)-butyl]-amide monohydrochloride], the IC50 in assay [1] (setting [3]) was found to be 840 nM. In addition, the inhibition at 10 µM in assay [2] is 8%.

For `CC(C)CCN(C)[C@@H](CC(C)C)C(=O)NCCCC(c1ccc(F)cc1)c1ccc(F)cc1` [Example 28, (S)-4-Methyl-2-[methyl-(3-methyl-butyl)-amino]-pentanoic acid [4,4-bis-(4-fluoro-phenyl)-butyl]-amide monohydrochloride], the inhibition at 1 µM came to 92% in assay [1] (IMR-32, IMR-32 cells, at 1 μM, read-out: IMR32 % blockage at 1 μM) and 55% in assay [2]. The inhibition at 10 µM was found to be 97% in assay [1] (IMR-32, IMR-32 cells, at 10 μM, read-out: IMR32 % blockage at 10 μM) and 88% in assay [2].

Take `CC(C)C[C@H](NC(=O)N1CCCCCC1)C(=O)N1CCN(C(c2ccc(F)cc2)c2ccc(F)cc2)CC1` [Example 31, (S)-Azepane-1-carboxylic acid (1-{4-[bis-(4-fluoro-phenyl)-methyl]-piperazine-1-carbonyl}-3-methyl-butyl)-amide]: the concentration for half-maximal inhibition (IC50) in assay [1] (setting [3]) is 480 nM. In assay [2], the inhibition at 1 µM was 2.5% and the inhibition at 10 µM was found to be 62%.

For `CC(C)[C@H](NC(=O)N1CCCCCC1)C(=O)N1CCN(C(c2ccc(F)cc2)c2ccc(F)cc2)CC1` [Example 33, (S)-Azepane-1-carboxylic acid (1-{4-[bis-(4-fluoro-phenyl)-methyl]-piperazine-1-carbonyl}-2-methyl-propyl)-amide], the IC50 in assay [1] (setting [3]) was found to be 850 nM. Further, in assay [2], the inhibition at 1 µM came out at 18% and the inhibition at 10 µM was determined as 72%.

For `CC(C)C[C@@H](CN1CCN(C(c2ccc(F)cc2)c2ccc(F)cc2)CC1)NC(=O)N1CCCCCC1` [Example 36, (S)-Azepane-1-carboxylic acid (1-{4-[bis-(4-fluoro-phenyl)-methyl]-piperazin-1-ylmethyl}-3-methyl-butyl)-amide], the IC50 in assay [1] (setting [4]) is 500 nM. Besides, in assay [2], the inhibition at 1 µM came out at 18% and the inhibition at 10 µM amounted to 81%.

Turning to `CC(C)C[C@@H](C(=O)N1CCN(C(c2ccc(F)cc2)c2ccc(F)cc2)CC1)N(C)C` [Example 39, (S)-1-{4-[Bis-(4-fluoro-phenyl)-methyl]-piperazin-1-yl}-2-dimethylamino-4-methyl-pentan-1-one dihydrochloride], in assay [1] (setting [4]), the IC50 is 3500 nM. In assay [2], the inhibition at 1 µM was 15% and the inhibition at 10 µM is 75%.
